Measurements taken from US4267192A, “Method for treating inflammation” (priority 1980, dated 1981).
Like-named read-outs stand apart in the source and are kept apart here.

Columns and labels:
[1] = test system: carrageenan-induced edema in the hind paw of the rat; test: rat carrageenan edema test (hind paw); assay type: in vivo, rat (male Sprague-Dawley); conditions: for Change in paw volume (ml) from 0-3 hr: mean ± S.E.; for % Change in paw edema: vs control
Description: (§1) Vehicle alone is administered as a control. Sixty minutes after drug administration edema is induced by an injection of 0.1 ml. of a 1% carrageenan solution is saline into the subplantar tissue of the rat's right hind paw. Two minutes later, paw volume is measured volumetrically with a plethysmograph and again 3 hours later. The mean volume of swelling for the control group is calculated and compared to the test groups. Percent change in paw edema is calculated and analyzed statistically (unpaired, Student's t-test).

[2] = test system: carrageenan-induced edema in the hind paw of normal and adrenalectomized rats; test: carrageenan paw edema in normal and adrenalectomized rats; assay type: in vivo, rat
Description: as §1
Normal rats received the same doses as adrenalectomized rats.

[3] = test system: rat stomach (gastric ulcers, gastric swelling); assay type: in vivo, rat (male Charles River, Sprague-Dawley); conditions: for Number of Animals With Gastric Swelling / Number of Animals With Gastric Ulcers: 4 hours after dosing
Description: The rats are divided into groups 6-10 and dosed by the oral route with test compound, on a mg/kg. body weight basis, or vehicle control, 0.5% carboxymethylcellulose, in a volume of 3 ml. per rat. Four hours after dosing, the rats are decapitated and exsanguinated. Stomachs are removed and examined for gastric swelling and then opened and washed for visual inspection of gastric ulcers. Only one lesion or gastric bleeding is necessary for a positive response. Data is reported quantally.

[4] = test system: polyarthritis induced by Mycobacterium butyricum or tuberculosis in rats; conditions: for Increase in Left Paw Volume (ml.) 0-16 days / Increase in Right Paw Volume (ml.) 0-4 days: mean ± S.E.
Description: Polyarthritis is induced in groups of 6-10 Sprague-Dawley rats weighing between 180-220 g. by a subcutaneous injection into the right paw of dessicated Mycobacterium butyricum or tuberculosis (0.5 mg/0.1 ml.) suspended in light mineral oil. […] Both hind paw volumes (ml.) are measured by mercury plethysmograph on day 0 or at the time of injection of the complete adjuvant. Increases in paw volume (viz. edema) are determined for both paws on days 4 and 16. The change in body weight from day 0 to day 16 is also calculated. Statistical analysis of differences in paw edemas and body weight is performed by using the unpaired. Student's t-test.

[5] = oral 100 mg/kg, Table 1 group a
[6] = oral 180 mg/kg, Table 1 group c
[7] = oral 180 mg/kg, Table 1 group e
[8] = Adrenalectomized Rats, oral 100 mg/kg
[9] = Adrenalectomized Rats, oral 200 mg/kg
[10] = rat, oral 3.0 mg/kg daily, Table 3 group a
[11] = rat, oral 5.0 mg/kg daily, Table 3 group b
[12] = rat, oral 10.0 mg/kg daily, Table 3 group a
[13] = rat, oral 10.0 mg/kg daily, Table 3 group b
[14] = rat, oral 25.0 mg/kg daily, Table 3 group b
[15] = rat, oral 30.0 mg/kg daily, Table 3 group a
[16] = rat, oral 100.0 mg/kg daily, Table 3 group a
[17] = rat, oral 300.0 mg/kg daily, Table 3 group a

SMILES: O=C(O)C=C1c2ccccc2C=Cc2ccccc21 [DCHA]
- estimated ED50 (carrageenan paw edema) ([1]; oral): ~80 mg/kg
- oral doses that inhibit carrageenan paw edema ([1]; oral): 10 to 180 mg/kg
- Change in paw volume (ml) from 0-3 hr ([1]; oral 3 mg/kg, Table 1 group a): 0.63 ± 0.10 mL
- % Change in paw edema ([1]; oral 3 mg/kg, Table 1 group a): -18%
- Change in paw volume (ml) from 0-3 hr ([1]; oral 10 mg/kg, Table 1 group a): 0.61 ± 0.05 mL
- % Change in paw edema ([1]; oral 10 mg/kg, Table 1 group a): -21%
- Change in paw volume (ml) from 0-3 hr ([1]; oral 10 mg/kg, Table 1 group b): 0.53 ± 0.10 mL
- % Change in paw edema ([1]; oral 10 mg/kg, Table 1 group b): -48%
- Change in paw volume (ml) from 0-3 hr ([1]; oral 20 mg/kg, Table 1 group c): 0.84 ± 0.10 mL
- % Change in paw edema ([1]; oral 20 mg/kg, Table 1 group c): -16%
- Change in paw volume (ml) from 0-3 hr ([1]; oral 20 mg/kg, Table 1 group e): 1.08 ± 0.05 mL
- % Change in paw edema ([1]; oral 20 mg/kg, Table 1 group e): -6%
- Change in paw volume (ml) from 0-3 hr ([1]; oral 30 mg/kg, Table 1 group a): 0.48 ± 0.06 mL
- % Change in paw edema ([1]; oral 30 mg/kg, Table 1 group a): -38%
- Change in paw volume (ml) from 0-3 hr ([1]; oral 30 mg/kg, Table 1 group b): 0.58 ± 0.08 mL
- % Change in paw edema ([1]; oral 30 mg/kg, Table 1 group b): -43%
- Change in paw volume (ml) from 0-3 hr ([1]; oral 60 mg/kg, Table 1 group c): 0.47 ± 0.08 mL
- % Change in paw edema ([1]; oral 60 mg/kg, Table 1 group c): -53%
- Change in paw volume (ml) from 0-3 hr ([1]; oral 60 mg/kg, Table 1 group e): 0.82 ± 0.13 mL
- % Change in paw edema ([1]; oral 60 mg/kg, Table 1 group e): -29%
- Change in paw volume (ml) from 0-3 hr ([1]; oral 90 mg/kg, Table 1 group b): 0.44 ± 0.03 mL
- % Change in paw edema ([1]; oral 90 mg/kg, Table 1 group b): -57%
- Change in paw volume (ml) from 0-3 hr [1, 5]: 0.44 ± 0.07 mL
- % Change in paw edema [1, 5]: -43%
- Change in paw volume (ml) from 0-3 hr [1, 6]: 0.49 ± 0.06 mL
- % Change in paw edema [1, 6]: -51%
- Change in paw volume (ml) from 0-3 hr [1, 7]: 0.62 ± 0.04 mL
- % Change in paw edema [1, 7]: -46%
- % Inhibition [2, 8]: 37%
- Edema (ml) ± S.E. [2, 8]: 0.57 ± .02 mL
- % Inhibition [2, 9]: 41%
- Edema (ml) ± S.E. [2, 9]: 0.81 ± .04 mL
- % Inhibition ([2]; Normal Rats, oral 100 mg/kg): 38%
- Mean Edema (ml) ± S.E. ([2]; Normal Rats, oral 100 mg/kg): 0.58 ± .04 mL
- % Inhibition ([2]; Normal Rats, oral 200 mg/kg): 44%
- Mean Edema (ml) ± S.E. ([2]; Normal Rats, oral 200 mg/kg): 0.53 ± .05 mL
- action by stimulating naturally occurring steroids ([2]; in words): independent of the adrenal glands
- anti-inflammatory activity in adrenalectomized rats compared with normal control animals ([2]; oral 100 and 200 mg/kg): not different from that observed in normal control animals
- gastric irritation ([3]; in words): neither causing gastric irritation nor affecting gastric secretions
- effect on gastric secretion ([3]; in words, high doses): no effect on gastric secretion
- gastric ulceration ([3]; rat, doses up to 480 mg/kg, in words): no gastric ulceration
- Number of Animals With Gastric Swelling ([3]; rat, oral 60 mg/kg): 0/6
- Number of Animals With Gastric Ulcers ([3]; rat, oral 60 mg/kg): 0/6
- Number of Animals With Gastric Swelling ([3]; rat, oral 120 mg/kg): 0/6
- Number of Animals With Gastric Ulcers ([3]; rat, oral 120 mg/kg): 0/6
- Number of Animals With Gastric Swelling ([3]; rat, oral 240 mg/kg): 0/6
- Number of Animals With Gastric Ulcers ([3]; rat, oral 240 mg/kg): 0/6
- Number of Animals With Gastric Swelling ([3]; rat, oral 480 mg/kg): 0/6
- Number of Animals With Gastric Ulcers ([3]; rat, oral 480 mg/kg): 0/6
- potency relative to aspirin ([4]; chronic inflammatory disease mediated mainly through immunological mechanisms, in words): several times more potent than aspirin
- toxicity at high doses ([4]; in words): no apparent toxicity at high doses
- % Change of Left Paw Edema at Day 16 [4, 10]: -45%
- % Change of Right Paw Edema at Day 4 [4, 10]: -15%
- Change In Body Weight (mean ± S.E.) 0-16 days [4, 10]: 22.5 ± 9.6
- Increase in Left Paw Volume (ml.) 0-16 days [4, 10]: 0.43 ± .09 mL
- Increase in Right Paw Volume (ml.) 0-4 days [4, 10]: 1.33 ± .11 mL
- % Change of Left Paw Edema at Day 16 [4, 11]: -5.4%
- % Change of Right Paw Edema at Day 4 [4, 11]: -30%
- Change In Body Weight (mean ± S.E.) 0-16 days [4, 11]: 19.5 ± 5.8
- Increase in Left Paw Volume (ml.) 0-16 days [4, 11]: 0.70 ± .05 mL
- Increase in Right Paw Volume (ml.) 0-4 days [4, 11]: 1.30 ± .08 mL
- % Change of Left Paw Edema at Day 16 [4, 12]: -47%
- % Change of Right Paw Edema at Day 4 [4, 12]: -55%
- Change In Body Weight (mean ± S.E.) 0-16 days [4, 12]: 25.6 ± 8.0
- Increase in Left Paw Volume (ml.) 0-16 days [4, 12]: 0.41 ± .04 mL
- Increase in Right Paw Volume (ml.) 0-4 days [4, 12]: 0.70 ± .06 mL
- % Change of Left Paw Edema at Day 16 [4, 13]: -55%
- % Change of Right Paw Edema at Day 4 [4, 13]: -39%
- Change In Body Weight (mean ± S.E.) 0-16 days [4, 13]: 33.3 ± 5.5
- Increase in Left Paw Volume (ml.) 0-16 days [4, 13]: 0.33 ± .06 mL
- Increase in Right Paw Volume (ml.) 0-4 days [4, 13]: 1.14 ± .04 mL
- % Change of Left Paw Edema at Day 16 [4, 14]: -47%
- % Change of Right Paw Edema at Day 4 [4, 14]: -47%
- Change In Body Weight (mean ± S.E.) 0-16 days [4, 14]: 30.3 ± 5.7
- Increase in Left Paw Volume (ml.) 0-16 days [4, 14]: 0.39 ± .04 mL
- Increase in Right Paw Volume (ml.) 0-4 days [4, 14]: 1.00 ± .05 mL
- % Change of Left Paw Edema at Day 16 [4, 15]: -62%
- % Change of Right Paw Edema at Day 4 [4, 15]: -58%
- Change In Body Weight (mean ± S.E.) 0-16 days [4, 15]: 45.8 ± 5.6
- Increase in Left Paw Volume (ml.) 0-16 days [4, 15]: 0.30 ± .05 mL
- Increase in Right Paw Volume (ml.) 0-4 days [4, 15]: 0.66 ± .06 mL
- weight gain ([4]; rat, oral 100 mg/kg): 51 g
- % Change of Left Paw Edema at Day 16 [4, 16]: -60%
- % Change of Right Paw Edema at Day 4 [4, 16]: -53%
- Change In Body Weight (mean ± S.E.) 0-16 days [4, 16]: 50.6 ± 5.4
- Increase in Left Paw Volume (ml.) 0-16 days [4, 16]: 0.31 ± .05 mL
- Increase in Right Paw Volume (ml.) 0-4 days [4, 16]: 0.74 ± .08 mL
- weight gain ([4]; rat, oral 300 mg/kg): 58 g
- % Change of Right Paw Edema at Day 4 [4, 17]: -58%
- Change In Body Weight (mean ± S.E.) 0-16 days [4, 17]: 58.2 ± 8.3
- Increase in Left Paw Volume (ml.) 0-16 days [4, 17]: 0.14 ± .06 mL
- Increase in Right Paw Volume (ml.) 0-4 days [4, 17]: 0.66 ± .05 mL
- toxic signs or loss of body weight ([4]; rat, oral 100 and 300 mg/kg): did not show any toxic signs or loss of body weight
- anti-inflammatory activity in the adjuvant arthritis test ([4]; rat, oral, daily): significant anti-inflammatory activity
- estimated ED50 (adjuvant arthritis test) ([4]; rat, oral, daily): ~15 mg/kg
- active doses, right paw edema at 4 days (acute, non-specific inflammation) ([4]; rat, orally): 10 to 300 mg/kg
- effective doses, left paw edema (immunologically induced inflammation) ([4]; rat, orally): 3-300 mg/kg
